In US6667387B1, “HCV core peptides” (priority 1992, dated 2003):
Ends that are not written are not given here.

Assays:
[1] = tested on: antibodies in sera from HCV-seropositive donors; test: ELISA with HCV antibody-positive sera (biotinylated peptides on streptavidin- or avidin-coated plates, unbiotinylated peptides coated directly); format: binding, human; conditions: for PEPTIDE ELISA (O.D.): Table 12, biotinylated 20-mers
In short: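 Peptides coated either directly at 2–5 or 3 μg/ml in carbonate buffer pH 9.6, or biotinylated at 1 μg/ml on streptavidin-coated wells (3 μg/ml). Plates casein-blocked, then human sera (1:100 or 1:20) incubated 1 h at 37° C. Bound antibody detected with HRP anti-human Ig/TMB, read as OD450.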

[2] = ELISA with seronegative / negative control sera (specificity); format: binding, human
In short: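 Specificity readout is OD at 450 nm (HRP goat anti-human Ig, TMB/H2O2, sulfuric acid stop), with ≥0.250 counted positive. Seronegative donor sera (typically 1:100, 1 h, 37° C) were applied to casein-blocked wells coated with peptide directly or via streptavidin capture of biotinylated peptide.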

PQRKTKRNTNRRPQDVKFPG
optical density (450 nm) ([1]; Table 4C, serum 8241, 20-fold dilution): 0.545 | optical density (450 nm) ([1]; Table 4C, serum 8242, 20-fold dilution): 2.415 | optical density (450 nm) ([1]; Table 4C, serum 8243, 20-fold dilution): 2.306 | optical density (450 nm) ([1]; Table 4C, serum 8247, 20-fold dilution): 1.975 | optical density (450 nm) ([1]; Table 4C, serum 8250, 20-fold dilution): 0.357 | optical density (450 nm) ([1]; Table 4C, serum 8271, 20-fold dilution): 1.284 | optical density (450 nm) ([1]; Table 4C, serum 8273, 20-fold dilution): 2.769 | optical density (450 nm) ([1]; Table 4C, serum 8274, 20-fold dilution): 2.943 | optical density (450 nm) ([1]; Table 4C, serum 8275, 20-fold dilution): 2.030 | optical density (450 nm) ([1]; Table 4C, serum 8276, 20-fold dilution): 2.348 | optical density (450 nm) ([1]; Table 4C, serum 8277, 20-fold dilution): 2.572 | optical density (450 nm) ([1]; Table 4C, serum 8278, 20-fold dilution): 2.022 | optical density (450 nm) ([1]; Table 5, sample 8242 (positive), peptide concentration 0.01 micrograms per milliliter, listed as HCV peptide II): 1.196 | optical density (450 nm) ([1]; Table 5, sample 8242 (positive), peptide concentration 0.03 micrograms per milliliter, listed as HCV peptide II): 1.481 | optical density (450 nm) ([1]; Table 5, sample 8242 (positive), peptide concentration 0.1 micrograms per milliliter, listed as HCV peptide II): 1.399 | optical density (450 nm) ([1]; Table 5, sample 8242 (positive), peptide concentration 0.3 micrograms per milliliter, listed as HCV peptide II): 1.365 | optical density (450 nm) ([1]; Table 5, sample 8242 (positive), peptide concentration 1.0 micrograms per milliliter, listed as HCV peptide II): 1.368 | optical density (450 nm) ([1]; Table 5, sample 8242 (positive), peptide concentration 3.0 micrograms per milliliter, listed as HCV peptide II): 1.427 | optical density (450 nm) ([1]; Table 5, sample 8243 (positive), peptide concentration 0.01 micrograms per milliliter, listed as HCV peptide II): 1.088 | optical density (450 nm) ([1]; Table 5, sample 8243 (positive), peptide concentration 0.03 micrograms per milliliter, listed as HCV peptide II): 1.597 | optical density (450 nm) ([1]; Table 5, sample 8243 (positive), peptide concentration 0.1 micrograms per milliliter, listed as HCV peptide II): 1.639 | optical density (450 nm) ([1]; Table 5, sample 8243 (positive), peptide concentration 0.3 micrograms per milliliter, listed as HCV peptide II): 1.608 | optical density (450 nm) ([1]; Table 5, sample 8243 (positive), peptide concentration 1.0 micrograms per milliliter, listed as HCV peptide II): 1.652 | optical density (450 nm) ([1]; Table 5, sample 8243 (positive), peptide concentration 3.0 micrograms per milliliter, listed as HCV peptide II): 1.668 | optical density (450 nm) ([1]; Table 5, sample 8318 (positive), peptide concentration 0.01 micrograms per milliliter, listed as HCV peptide II): 2.002 | optical density (450 nm) ([1]; Table 5, sample 8318 (positive), peptide concentration 0.03 micrograms per milliliter, listed as HCV peptide II): 2.181 | optical density (450 nm) ([1]; Table 5, sample 8318 (positive), peptide concentration 0.1 micrograms per milliliter, listed as HCV peptide II): 2.001 | optical density (450 nm) ([1]; Table 5, sample 8318 (positive), peptide concentration 0.3 micrograms per milliliter, listed as HCV peptide II): 1.958 | optical density (450 nm) ([1]; Table 5, sample 8318 (positive), peptide concentration 1.0 micrograms per milliliter, listed as HCV peptide II): 1.993 | optical density (450 nm) ([1]; Table 5, sample 8318 (positive), peptide concentration 3.0 micrograms per milliliter, listed as HCV peptide II): 2.016 | optical density (450 nm) ([1]; Table 5, sample 8320 (positive), peptide concentration 0.01 micrograms per milliliter, listed as HCV peptide II): 2.519 | optical density (450 nm) ([1]; Table 5, sample 8320 (positive), peptide concentration 0.03 micrograms per milliliter, listed as HCV peptide II): 2.757 | optical density (450 nm) ([1]; Table 5, sample 8320 (positive), peptide concentration 0.1 micrograms per milliliter, listed as HCV peptide II): 2.718 | optical density (450 nm) ([1]; Table 5, sample 8320 (positive), peptide concentration 0.3 micrograms per milliliter, listed as HCV peptide II): 2.684 | optical density (450 nm) ([1]; Table 5, sample 8320 (positive), peptide concentration 1.0 micrograms per milliliter, listed as HCV peptide II): 2.684 | optical density (450 nm) ([1]; Table 5, sample 8320 (positive), peptide concentration 3.0 micrograms per milliliter, listed as HCV peptide II): 2.718 | optical density (450 nm) ([1]; Table 8, serum 8243 (HCV), Avidin): 1.430 | optical density (450 nm) ([1]; Table 8, serum 8247 (HCV), Avidin): 1.356 | optical density (450 nm) ([1]; Table 8, serum 8248 (HCV), Avidin): 2.287 | optical density (450 nm) ([1]; Table 8, serum 8269 (HCV), Avidin): 1.213 | optical density (450 nm) ([1]; Table 8, serum 8273 (HCV), Avidin): 2.017 | optical density (450 nm) ([1]; Table 8, serum 8278 (HCV), Avidin): 1.878 | optical density (450 nm) ([1]; Table 8, serum 8285 (HCV), Avidin): 1.592 | optical density (450 nm) ([1]; Table 8, serum 8290 (HCV), Avidin): 0.060 | optical density (450 nm) ([1]; Table 8, serum 8291 (HCV), Avidin): 1.539 | PEPTIDE ELISA (O.D.) ([1]; serum 0843): 2.306 | PEPTIDE ELISA (O.D.) ([1]; serum 8240): 2.441 | PEPTIDE ELISA (O.D.) ([1]; serum 8241): 0.545 | PEPTIDE ELISA (O.D.) ([1]; serum 8242): 2.415 | PEPTIDE ELISA (O.D.) ([1]; serum 8332): 1.977 | PEPTIDE ELISA (O.D.) ([1]; serum 8339): 2.030 | PEPTIDE ELISA (O.D.) ([1]; serum 8350): 1.982 | PEPTIDE ELISA (O.D.) ([1]; serum 8377): 2.181 | PEPTIDE ELISA (O.D.) ([1]; serum 8378): 2.140 | PEPTIDE ELISA (O.D.) ([1]; serum 8388): 2.463 | optical density (450 nm) ([2]; Table 4C, negative serum): 0.070 | optical density (450 nm) ([2]; Table 5, sample 1747 (negative), peptide concentration 0.01 micrograms per milliliter, listed as HCV peptide II): 0.045 | optical density (450 nm) ([2]; Table 5, sample 1747 (negative), peptide concentration 0.03 micrograms per milliliter, listed as HCV peptide II): 0.045 | optical density (450 nm) ([2]; Table 5, sample 1747 (negative), peptide concentration 0.1 micrograms per milliliter, listed as HCV peptide II): 0.045 | optical density (450 nm) ([2]; Table 5, sample 1747 (negative), peptide concentration 0.3 micrograms per milliliter, listed as HCV peptide II): 0.046 | optical density (450 nm) ([2]; Table 5, sample 1747 (negative), peptide concentration 1.0 micrograms per milliliter, listed as HCV peptide II): 0.071 | optical density (450 nm) ([2]; Table 5, sample 1747 (negative), peptide concentration 3.0 micrograms per milliliter, listed as HCV peptide II): 0.064 | optical density (450 nm) ([2]; Table 5, sample 1781 (negative), peptide concentration 0.01 micrograms per milliliter, listed as HCV peptide II): 0.053 | optical density (450 nm) ([2]; Table 5, sample 1781 (negative), peptide concentration 0.03 micrograms per milliliter, listed as HCV peptide II): 0.049 | optical density (450 nm) ([2]; Table 5, sample 1781 (negative), peptide concentration 0.1 micrograms per milliliter, listed as HCV peptide II): 0.047 | optical density (450 nm) ([2]; Table 5, sample 1781 (negative), peptide concentration 0.3 micrograms per milliliter, listed as HCV peptide II): 0.051 | optical density (450 nm) ([2]; Table 5, sample 1781 (negative), peptide concentration 1.0 micrograms per milliliter, listed as HCV peptide II): 0.055 | optical density (450 nm) ([2]; Table 5, sample 1781 (negative), peptide concentration 3.0 micrograms per milliliter, listed as HCV peptide II): 0.057 | optical density (450 nm) ([2]; Table 8, serum 1782 (blood donor), Avidin): 0.057 | optical density (450 nm) ([2]; Table 8, serum 1784 (blood donor), Avidin): 0.045 | optical density (450 nm) ([2]; Table 8, serum 1785 (blood donor), Avidin): 0.045 | optical density (450 nm) ([2]; Table 8, serum 1794 (blood donor), Avidin): 0.153
